Results published in ChEMBL document CHEMBL1201862, “PubChem BioAssay data set” (2004).
The source made the active and inactive calls.

Legend:
[1] = test system: Streptococcus sp. 'group A'; assay: growth inhibition of control SK(-) GAS strain, dose response, counter-screen for streptokinase expression inhibitor project, luminescence, kanamycin, BacTiterGlo, confirmation (AID 1900); assay type: functional, organism-based
Streptokinase A = molecular target: T1, Streptokinase A (Streptococcus pyogenes serotype M1, UniProt P10520); assay: S. pyogenes streptokinase expression inhibitors, potency, dose response, plasminogen activation absorbance, OD405 (AID 1914); assay type: functional, Streptococcus pyogenes M1 GAS;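 also: secreted streptokinase activity via plasminogen activation per viability signal from cell pellet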
T1 sequence (P10520 whole entry): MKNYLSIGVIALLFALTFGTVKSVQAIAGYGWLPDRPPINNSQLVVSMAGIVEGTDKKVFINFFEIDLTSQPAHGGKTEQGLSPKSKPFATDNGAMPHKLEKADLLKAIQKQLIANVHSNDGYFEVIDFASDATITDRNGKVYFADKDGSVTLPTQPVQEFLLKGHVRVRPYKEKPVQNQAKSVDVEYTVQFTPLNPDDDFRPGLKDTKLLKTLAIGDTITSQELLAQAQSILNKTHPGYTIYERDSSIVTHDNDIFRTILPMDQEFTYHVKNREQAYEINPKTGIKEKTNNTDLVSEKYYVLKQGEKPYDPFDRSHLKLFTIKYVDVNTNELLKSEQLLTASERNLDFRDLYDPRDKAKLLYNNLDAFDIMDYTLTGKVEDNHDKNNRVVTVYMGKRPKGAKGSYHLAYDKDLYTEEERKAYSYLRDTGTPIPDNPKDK

[2] = growth suppression of PTEN-null colon cells, dose response, cell-based, HCT116 PTEN knockout (AID 1047); assay type: functional;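 also: HCT116 colon tumor cells with PTEN knocked out; cells exposed to compound for 60 hours before readout; potency for loss of cell viability measured by luminescence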
[3] = growth suppression of beta-catenin-knockout colon cells, dose response, cell-based, HCT116, human colon tumor (AID 1045); assay type: functional;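 also: HCT116 colon tumor cells with beta catenin knocked out; cells exposed to compound for 60 hours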
Streptococcus = assay: Group A Streptococcus viability loss, dose response, counter-screen for streptokinase expression inhibitor project, luminescence, BacTiterGlo (AID 1915); assay type: functional, organism-based;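 also: potency for reduction of bacterial viability or growth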
X-box-binding protein 1 = X-box-binding protein 1 (Homo sapiens, UniProt P17861); assay type: functional, Cricetulus griseus;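 also: confirmatory dose-response counter-screen serving a CHOP assay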
X-box-binding protein 1, sequence (P17861 whole entry): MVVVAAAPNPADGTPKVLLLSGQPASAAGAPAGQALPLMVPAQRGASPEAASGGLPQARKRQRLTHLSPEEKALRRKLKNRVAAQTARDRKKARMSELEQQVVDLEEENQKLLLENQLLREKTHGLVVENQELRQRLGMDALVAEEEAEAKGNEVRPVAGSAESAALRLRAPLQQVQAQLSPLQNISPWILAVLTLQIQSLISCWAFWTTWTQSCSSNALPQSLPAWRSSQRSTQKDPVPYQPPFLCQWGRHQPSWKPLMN

Bcl-2-like protein 10 = Bcl-2-like protein 10 (Homo sapiens, UniProt Q9HD36); assay: displacers of TR3 peptide from Bcl-B, primary screen, selectivity assay for Bfl-1 inhibitor project, biochemical, fluorescence polarization, FITC-TR3 peptide (AID 748);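 also: fluorescence polarization from a fluorescein-labelled TR3 peptide binding purified Bcl-B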
Bcl-2-like protein 10, sequence (Q9HD36 whole entry): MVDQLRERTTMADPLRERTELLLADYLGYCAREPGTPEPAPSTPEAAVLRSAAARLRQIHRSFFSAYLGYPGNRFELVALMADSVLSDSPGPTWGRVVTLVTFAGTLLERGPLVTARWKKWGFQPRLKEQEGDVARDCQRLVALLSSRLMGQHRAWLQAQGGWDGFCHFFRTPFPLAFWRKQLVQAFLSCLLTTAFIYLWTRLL

Estrogen receptor beta [4] = molecular target: T2, Estrogen receptor beta (Homo sapiens, UniProt Q92731);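 also: recombinant ER-beta bound to coactivator SRC1 peptide in presence of estradiol agonist; inhibitors block coactivator peptide binding and lower the FRET signal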
T2 sequence (Q92731 whole entry): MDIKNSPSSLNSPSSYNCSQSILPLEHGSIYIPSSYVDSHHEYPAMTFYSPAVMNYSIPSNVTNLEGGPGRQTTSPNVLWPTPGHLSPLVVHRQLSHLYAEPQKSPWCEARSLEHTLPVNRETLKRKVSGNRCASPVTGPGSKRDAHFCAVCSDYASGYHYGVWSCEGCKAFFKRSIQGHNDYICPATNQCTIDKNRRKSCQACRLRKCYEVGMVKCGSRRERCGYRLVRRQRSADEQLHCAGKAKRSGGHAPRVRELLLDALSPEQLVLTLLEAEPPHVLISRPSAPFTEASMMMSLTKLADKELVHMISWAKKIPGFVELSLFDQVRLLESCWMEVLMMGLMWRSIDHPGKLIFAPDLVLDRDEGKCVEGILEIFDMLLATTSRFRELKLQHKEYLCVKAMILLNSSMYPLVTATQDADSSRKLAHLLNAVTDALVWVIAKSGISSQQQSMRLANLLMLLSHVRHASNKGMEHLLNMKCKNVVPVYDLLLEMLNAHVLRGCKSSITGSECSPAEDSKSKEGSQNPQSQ

Estrogen receptor beta [5] = molecular target: T2, Estrogen receptor beta; assay: ERβ–SRC-3 coactivator interaction inhibitors, confirmation, orthogonal assay, biochemical, ELISA, streptavidin-HRP readout (AID 1060)
[6] = THP-1 cell cytotoxicity, dose response, cytotoxicity control for Vif-APOBEC3G degradation inhibitor project, THP-1 cells (AID 1117359); assay type: functional; conditions: Human immunodeficiency virus 1, THP-1
HEK293 [7] = assay: NOD1 signaling inhibitors, primary screen, cell-based, luminescence, uHTS (AID 1578); assay type: functional; conditions: Homo sapiens
HEK293 [8] = assay: cells; assay type: functional, cell-based; conditions: Homo sapiens
HEK293 [9] = assay: cells; assay type: functional, cell-based; conditions: Homo sapiens; remark: listed apart in the source
[10] = molecular target: T3, Nucleotide-binding oligomerization domain-containing protein 2 (Homo sapiens, UniProt Q9HC29); assay: NOD2 signaling inhibitors, cell-based, luminescence, uHTS, HEK293 (AID 1566); assay type: functional
T3 sequence (Q9HC29 whole entry, the tested form may be a part): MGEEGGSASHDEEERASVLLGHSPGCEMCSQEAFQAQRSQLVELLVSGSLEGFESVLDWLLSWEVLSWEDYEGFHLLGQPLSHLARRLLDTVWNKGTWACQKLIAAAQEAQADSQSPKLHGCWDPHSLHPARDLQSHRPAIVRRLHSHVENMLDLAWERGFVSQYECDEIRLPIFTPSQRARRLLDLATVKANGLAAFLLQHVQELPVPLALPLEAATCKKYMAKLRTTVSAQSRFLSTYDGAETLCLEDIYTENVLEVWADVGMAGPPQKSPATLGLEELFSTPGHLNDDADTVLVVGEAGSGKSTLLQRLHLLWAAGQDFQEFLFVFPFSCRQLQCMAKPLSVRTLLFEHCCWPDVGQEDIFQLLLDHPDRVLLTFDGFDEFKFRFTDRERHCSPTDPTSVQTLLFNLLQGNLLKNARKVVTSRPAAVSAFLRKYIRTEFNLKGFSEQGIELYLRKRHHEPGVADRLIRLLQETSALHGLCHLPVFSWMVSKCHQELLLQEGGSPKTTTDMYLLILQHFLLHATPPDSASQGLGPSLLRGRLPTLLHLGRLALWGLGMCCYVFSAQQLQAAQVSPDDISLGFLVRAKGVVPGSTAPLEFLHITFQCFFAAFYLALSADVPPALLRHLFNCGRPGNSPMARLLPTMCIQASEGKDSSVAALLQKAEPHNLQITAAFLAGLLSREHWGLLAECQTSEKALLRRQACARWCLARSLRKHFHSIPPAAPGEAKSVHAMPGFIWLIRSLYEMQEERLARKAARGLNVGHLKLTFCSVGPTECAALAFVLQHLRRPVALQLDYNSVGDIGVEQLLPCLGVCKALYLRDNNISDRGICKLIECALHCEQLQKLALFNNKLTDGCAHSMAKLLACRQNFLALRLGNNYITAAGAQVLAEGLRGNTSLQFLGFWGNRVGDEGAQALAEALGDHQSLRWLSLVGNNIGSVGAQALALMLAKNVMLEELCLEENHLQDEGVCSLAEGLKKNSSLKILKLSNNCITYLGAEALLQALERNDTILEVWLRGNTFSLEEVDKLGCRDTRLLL

HEK293 [11] = assay: NOD2 signaling inhibitors in MDP-stimulated cells, cell-based, uHTS, luminescence (AID 2001); assay type: functional; conditions: Homo sapiens
HEK293 [12] = assay: cells; assay type: functional, cell-based; conditions: Homo sapiens; remark: listed apart in the source
Tumor necrosis factor = Tumor necrosis factor (Homo sapiens, UniProt P01375); assay: TNFa-triggered NF-kB activation inhibitors, SAR follow-up, cell-based, revised (AID 2337); assay type: functional
Tumor necrosis factor, sequence (P01375 whole entry, the tested form may be a part): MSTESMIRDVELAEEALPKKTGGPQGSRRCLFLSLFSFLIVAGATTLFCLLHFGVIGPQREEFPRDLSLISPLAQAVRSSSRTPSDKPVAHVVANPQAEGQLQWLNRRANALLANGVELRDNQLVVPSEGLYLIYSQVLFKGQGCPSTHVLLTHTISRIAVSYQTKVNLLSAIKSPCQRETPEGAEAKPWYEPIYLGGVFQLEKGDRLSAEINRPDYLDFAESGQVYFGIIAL

[13] = molecular target: T4, Nucleotide-binding oligomerization domain-containing protein 1 (Homo sapiens, UniProt Q9Y239); assay: NOD1 signaling inhibitors, SAR follow-up, revised (AID 2333); assay type: functional
T4 sequence (Q9Y239 whole entry): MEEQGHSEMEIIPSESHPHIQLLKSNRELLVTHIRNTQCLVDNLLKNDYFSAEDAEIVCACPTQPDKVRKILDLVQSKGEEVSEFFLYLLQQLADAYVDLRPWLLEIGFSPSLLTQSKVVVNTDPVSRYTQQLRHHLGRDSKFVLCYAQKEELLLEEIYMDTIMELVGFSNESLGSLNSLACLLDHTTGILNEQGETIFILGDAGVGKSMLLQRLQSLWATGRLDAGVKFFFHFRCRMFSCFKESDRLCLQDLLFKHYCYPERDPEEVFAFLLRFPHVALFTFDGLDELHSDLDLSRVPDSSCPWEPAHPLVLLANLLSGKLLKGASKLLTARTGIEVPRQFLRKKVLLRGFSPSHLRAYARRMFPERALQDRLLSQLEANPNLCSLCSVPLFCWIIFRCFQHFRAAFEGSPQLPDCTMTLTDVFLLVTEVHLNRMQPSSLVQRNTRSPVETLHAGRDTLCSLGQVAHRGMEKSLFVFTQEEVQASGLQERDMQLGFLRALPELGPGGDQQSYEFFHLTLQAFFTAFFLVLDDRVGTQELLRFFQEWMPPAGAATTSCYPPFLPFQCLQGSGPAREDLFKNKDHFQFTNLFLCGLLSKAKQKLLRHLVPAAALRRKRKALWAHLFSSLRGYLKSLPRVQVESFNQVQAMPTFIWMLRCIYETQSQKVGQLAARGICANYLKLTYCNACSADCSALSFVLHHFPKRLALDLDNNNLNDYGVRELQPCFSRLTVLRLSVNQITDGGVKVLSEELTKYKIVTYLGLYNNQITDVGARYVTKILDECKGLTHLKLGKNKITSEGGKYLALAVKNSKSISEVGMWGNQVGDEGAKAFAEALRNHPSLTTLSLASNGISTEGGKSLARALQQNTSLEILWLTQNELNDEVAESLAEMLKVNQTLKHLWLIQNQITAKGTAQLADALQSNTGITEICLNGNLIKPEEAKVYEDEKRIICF

[14] = molecular target: T5, Heat shock factor protein 1 (Mus musculus, UniProt P38532); assay: HSF1 potentiators in luciferase reporter cells, confirmation, cell-based, NIH3T3, luminescence, dose retest (AID 435004); assay type: functional;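 also: stress induced by proteasome inhibitor MG132 added 30 min after compound; luciferase reporter driven by HSF1 response element in NIH3T3 cells; actives raise luminescence as potentiators of the MG132 stress response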
T5 sequence (P38532 whole entry): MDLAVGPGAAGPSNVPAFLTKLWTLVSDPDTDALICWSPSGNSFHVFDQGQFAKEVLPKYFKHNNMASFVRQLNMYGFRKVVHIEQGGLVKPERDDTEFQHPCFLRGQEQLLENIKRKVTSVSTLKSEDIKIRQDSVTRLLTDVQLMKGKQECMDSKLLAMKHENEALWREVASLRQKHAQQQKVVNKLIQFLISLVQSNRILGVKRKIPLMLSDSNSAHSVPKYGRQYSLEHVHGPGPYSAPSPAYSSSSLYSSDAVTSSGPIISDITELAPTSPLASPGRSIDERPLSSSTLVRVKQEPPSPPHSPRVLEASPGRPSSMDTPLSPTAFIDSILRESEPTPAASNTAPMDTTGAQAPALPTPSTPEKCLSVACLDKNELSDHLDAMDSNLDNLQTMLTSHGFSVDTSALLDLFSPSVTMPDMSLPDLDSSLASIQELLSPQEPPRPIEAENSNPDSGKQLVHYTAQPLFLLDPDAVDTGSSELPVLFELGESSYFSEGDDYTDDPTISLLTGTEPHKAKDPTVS

[15] = molecular target: T3, Nucleotide-binding oligomerization domain-containing protein 2; assay: PubChem AID 2334; assay type: functional
[16] = molecular target: T6, Corticotropin-releasing factor receptor 2/Corticotropin-releasing factor-binding protein (Homo sapiens, UniProt P24387+Q13324); assay: Dose Response confirmation of uHTS hits for small molecule antagonists of the CRF-binding protein and CRF-R2 receptor complex.; assay type: functional; conditions: read-out: IC50_Mean
T6 sequence (Q13324 whole entry): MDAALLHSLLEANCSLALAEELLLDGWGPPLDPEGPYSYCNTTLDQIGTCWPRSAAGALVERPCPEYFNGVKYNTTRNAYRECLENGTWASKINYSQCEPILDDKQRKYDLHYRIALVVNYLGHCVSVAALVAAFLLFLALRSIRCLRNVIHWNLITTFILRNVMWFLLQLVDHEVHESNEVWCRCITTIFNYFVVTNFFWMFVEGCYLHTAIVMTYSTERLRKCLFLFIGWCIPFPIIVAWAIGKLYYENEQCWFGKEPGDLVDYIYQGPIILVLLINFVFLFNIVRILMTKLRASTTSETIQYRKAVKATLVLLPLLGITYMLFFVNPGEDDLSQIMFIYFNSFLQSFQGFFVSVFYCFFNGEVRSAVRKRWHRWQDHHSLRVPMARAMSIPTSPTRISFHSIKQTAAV
T6 sequence (P24387 whole entry): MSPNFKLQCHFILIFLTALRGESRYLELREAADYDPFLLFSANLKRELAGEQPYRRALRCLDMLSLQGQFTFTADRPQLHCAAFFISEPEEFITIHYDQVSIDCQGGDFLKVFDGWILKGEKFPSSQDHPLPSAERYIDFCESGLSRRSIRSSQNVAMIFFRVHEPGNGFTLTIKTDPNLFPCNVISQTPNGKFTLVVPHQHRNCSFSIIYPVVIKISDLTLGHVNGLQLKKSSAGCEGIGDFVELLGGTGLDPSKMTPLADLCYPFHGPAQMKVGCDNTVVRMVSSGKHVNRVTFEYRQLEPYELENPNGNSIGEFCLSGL

[17] = molecular target: T6, Corticotropin-releasing factor receptor 2/Corticotropin-releasing factor-binding protein; assay: activators of CRF receptor 2 with binding protein – uHTS hits, confirmation (AID 602473); assay type: functional; conditions: read-out: EC50_Mean
HEK293 [18] = assay: cells; conditions: Homo sapiens
[19] = HepG2 cell cytotoxicity, dose response, cytotoxicity control for non-replicating M. tuberculosis project (AID 489018); assay type: functional; conditions: Mycobacterium tuberculosis
[20] = Vero E6 cell cytotoxicity, dose response, cytotoxicity control for non-replicating M. tuberculosis project, secondary assay (AID 492998); assay type: functional, VeroE6; conditions: Vero C1008
cells = assay type: functional

Oc1[nH]c2ccccc2c1N=NC(S)=NCCc1ccccc1
EC50 [1]: 4.7 µM (active)
EC50 (Streptokinase A): > 150 µM (not active)
EC50 [2]: 24 µM (active)
EC50 [3]: 23 µM (active)
EC50 (Streptococcus): 10.9 µM (active)
Absolute IC50 (XBP1) (X-box-binding protein 1): 10 µM

O=C(CSc1ccc(Cl)cc1)c1ccco1
IC50 (Bcl-2-like protein 10): 25.5 µM (active)
IC50 (Estrogen receptor beta [4]): < 1.56 µM (active)
IC50 (Estrogen receptor beta [5]): 17.9 µM (not active)
CC50 [6]: > 40 µM (active)

O=C(NC(=S)N1CCN(c2ccc(F)cc2)CC1)c1cccs1
EC50 (HEK293 [7]): > 20 µM (inactive)
IC50 (HEK293 [8]): > 20 µM (inactive)
IC50 (HEK293 [9]): > 20 µM (inactive)
EC50 [10]: > 20 µM (inactive)
IC50 (HEK293 [11]): 10 µM (inactive)
IC50 (HEK293 [12]): > 20 µM (inactive)
IC50 (Tumor necrosis factor): > 20 µM (inactive)
IC50 [13]: 19.4 µM (active)
EC50 [14]: > 260 µM (inactive)
IC50 [15]: > 20 µM (inactive)
IC50 [16]: > 47.1 µM (inactive)
EC50 [17]: > 53 µM (inactive)
IC50 (HEK293 [18]): > 20 µM (inactive)

COc1ccc(CCNc2nc(-c3ccccn3)cs2)cc1OC
EC50 [1]: 14.3 µM (active)
EC50 (Streptokinase A): > 150 µM (not active)
EC50 (Streptococcus): > 150 µM (not active)
CC50 [19]: > 20 µM (active)
CC50 [20]: 14.7 µM (active)
IC50 (cells): 1.14 µM (active)

O=C(C1CC1)N1CCc2cc(S(=O)(=O)N3CCN(c4ccc(Cl)cc4)CC3)ccc21
IC50 (Tumor necrosis factor): > 20 µM (inactive)
IC50 [13]: > 20 µM (inactive)
IC50 [15]: > 20 µM (inactive)
IC50 (HEK293 [18]): > 20 µM (inactive)
